# Reference: patent US10752581B2, “4-((2-hydroxy-3-methoxybenzyl)amino)benzenesulfonamide derivatives as potent and selective inhibitors of 12-lipoxygenase” (Eastern Virginia Medical School, priority 2013, dated 2020)
# “Also recorded” adds a separate entry of the source.
# How the values were obtained:
# [1] = biological target: human platelet 12-lipoxygenase (12-LOX) (Homo sapiens (Human), UniProt P18054); details: for IC50: read-out: IC50 [+SD], Table 1, UV-vis cuvette-based assay in triplicate
# [2] = Parallel Artificial Membrane Permeability Assay (PAMPA); details: PAMPA at pH 7.4
# [3] = Microsomal stability (rat); assay type: in vitro ADME
# [4] = PBS buffer (pH 7.4) solubility; assay type: physicochemical
# [5] = tested on: human donor islet preparations; assay: Glucose-stimulated insulin secretion in human islets; assay type: cell-based; details: cytokines (TNFα, IL-1β, IFNγ); 3 mM or 18 mM glucose
# Method: FIGS. 3D and 3E show results from glucose-stimulated insulin secretion in human donor islet preparations in response to 3 mM glucose (Low) or 18 mM glucose (High) for control (untreated) islets. […] FIGS. 3D and 3E represent results obtained in different human donor islet preparations.
# [6] = Stability in aqueous buffers and glutathione; assay type: physicochemical
# 12-LOX = 12-LOX (Homo sapiens (Human), UniProt P18054)
# Method: Reactions were initiated by adding substrate (range 1-5 μM AA) to approximately 30 nM 12-LOX in a constantly stirring 2 mL cuvette containing 25 mM HEPES buffer (pH 7.5), in the presence of 0.01% Triton X-100. […] Kinetic data were obtained by recording initial enzymatic rates, at varied substrate and inhibitor concentrations, and subsequently fitted to the Henri-Michaelis-Menten equation, using KaleidaGraph (Synergy) to determine the microscopic rate constants, Vmax (μmol/min/mg) and Vmax/KM (μmol/min/mg/μM).
# Mouse beta cells (BTC3) = assay: Mouse Beta cells (12-HETE Inhibition) Assay; details: AA/IONO
# Method: After four hours, the media was removed and spun at 1000 RPM for 5 minutes. The cleared supernatant was stored at −80° C. prior to analysis.
# mouse plasma stability = assay type: in vitro ADME
# washed human platelets [7] = assay: PAR4-AP-induced platelet aggregation; assay type: cell-based
# Method: (§1) Blood was centrifuged at 200 g for 13 min at room temperature.
# washed human platelets [8] = assay: PAR4-AP-induced calcium mobilization; assay type: cell-based; details: 200 μM PAR4-AP; increasing concentrations
# Method: as §1
# [9] = biological target: human epithelial 15-lipoxygenase-2 (15-LOX-2) (Homo sapiens (Human), UniProt O15296); assay: biochemical
# Sequence of human epithelial 15-lipoxygenase-2 (15-LOX-2) (O15296 whole entry): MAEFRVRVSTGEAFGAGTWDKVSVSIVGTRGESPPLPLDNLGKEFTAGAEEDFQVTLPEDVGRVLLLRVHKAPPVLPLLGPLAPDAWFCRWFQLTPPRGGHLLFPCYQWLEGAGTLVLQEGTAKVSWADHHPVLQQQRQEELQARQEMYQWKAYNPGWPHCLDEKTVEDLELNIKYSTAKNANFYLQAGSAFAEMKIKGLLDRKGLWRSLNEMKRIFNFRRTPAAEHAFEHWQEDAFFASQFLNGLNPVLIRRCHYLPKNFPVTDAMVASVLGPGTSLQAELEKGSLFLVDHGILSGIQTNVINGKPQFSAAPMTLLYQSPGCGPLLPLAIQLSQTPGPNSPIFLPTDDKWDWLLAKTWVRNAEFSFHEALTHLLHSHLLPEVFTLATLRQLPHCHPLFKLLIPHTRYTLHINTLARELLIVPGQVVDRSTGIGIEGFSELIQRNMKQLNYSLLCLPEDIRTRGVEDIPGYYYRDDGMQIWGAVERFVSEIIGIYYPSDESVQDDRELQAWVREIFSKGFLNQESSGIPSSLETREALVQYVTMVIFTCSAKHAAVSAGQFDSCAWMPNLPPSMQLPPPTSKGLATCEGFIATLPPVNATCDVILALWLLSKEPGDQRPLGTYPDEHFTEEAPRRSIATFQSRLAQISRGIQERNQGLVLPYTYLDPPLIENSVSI
# Sequence of human platelet 12-lipoxygenase (12-LOX) (P18054 whole entry): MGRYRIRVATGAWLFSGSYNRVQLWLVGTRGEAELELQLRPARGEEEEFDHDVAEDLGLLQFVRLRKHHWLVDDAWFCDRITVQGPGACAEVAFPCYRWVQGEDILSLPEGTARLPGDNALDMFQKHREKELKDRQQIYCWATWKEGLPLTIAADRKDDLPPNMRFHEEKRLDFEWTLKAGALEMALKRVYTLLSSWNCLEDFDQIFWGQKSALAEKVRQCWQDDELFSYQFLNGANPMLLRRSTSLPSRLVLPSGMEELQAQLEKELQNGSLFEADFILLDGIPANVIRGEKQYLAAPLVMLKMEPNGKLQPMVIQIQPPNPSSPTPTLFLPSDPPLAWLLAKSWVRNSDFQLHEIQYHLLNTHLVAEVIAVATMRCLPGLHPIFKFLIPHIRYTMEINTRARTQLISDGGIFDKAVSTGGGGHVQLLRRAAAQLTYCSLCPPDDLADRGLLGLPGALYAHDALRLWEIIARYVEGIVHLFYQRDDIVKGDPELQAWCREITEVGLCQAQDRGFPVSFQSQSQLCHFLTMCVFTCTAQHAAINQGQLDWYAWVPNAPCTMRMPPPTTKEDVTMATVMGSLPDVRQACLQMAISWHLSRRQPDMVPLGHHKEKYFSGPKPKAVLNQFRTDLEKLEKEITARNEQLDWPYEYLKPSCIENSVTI
# Sequence of 12-LOX (P18054 whole entry): as above
structure (smiles),measurement,setting,value
"O=S(=O)(Nc1nccs1)c1ccc(NCc2ccccc2)cc1 [Compound 8, 4-(benzylamino)-N-(thiazol-2-yl)benzene sulfonamide]","12-LOX inhibitory activity (SAR, in words)",[1],complete loss of activity
same,IC50,[1],> 40 µM
"COc1cccc(CNc2ccc(S(=O)(=O)Nc3nc4ccccc4o3)cc2)c1O [Compound 36, N-(benzo[d]oxazol-2-yl)-4-((2-hydroxy-3-methoxybenzyl)amino)benzenesulfonamide]",permeability (1 × 10^−6 cm/s),[2],168^c 1 × 10^−6 cm/s
same,half-life,"[3]; microsomes, rat, in the presence of NADPH, read-out: Microsomal stability T1/2",> 30 min
same,microsomal degradation without NADPH,[3]; without NADPH present over a 1 h period,^bRepresents the stability in the presence of NADPH. 35 and 36 showed no degradation without NADPH present over a 1 h period.
same,solubility,"[4]; PBS buffer, pH 7.4, aqueous buffer",> 60 µg/mL
same,improvement of solubility in buffer,[4]; relative to ML355,> 10 fold
same,glucose-stimulated insulin secretion with cytokines,[5],Uncoupling of glucose-stimulated insulin secretion by cytokines is inhibited
same,PBS buffer (pH 7.4) stability at 48 h (%),[6],100%
same,mode of inhibition,12-LOX,mixed inhibitors
same,inhibition of 12-HETE in mouse beta cells (in words),Mouse beta cells (BTC3),Comparable results
same,mouse plasma stability remaining at 2 h (%),mouse plasma stability,100%
same,PAR4-AP induced platelet aggregation (in words),washed human platelets [7],Comparable results
same,PAR4-AP-induced calcium mobilization (in words),washed human platelets [8],Calcium mobilization was decreased; also recorded: Comparable results
"Nc1ccccc1CNc1ccc(S(=O)(=O)Nc2nccs2)cc1 [Compound 13, 4-(2-aminobenzylamino)-N-(thiazol-2-yl)benzene sulfonamide]","12-LOX inhibitory activity (SAR, in words)",[1],negated all 12-LOX inhibitory activity
same,IC50,[1],> 40 µM
"O=S(=O)(Nc1nccs1)c1ccc(NCc2cccc(O)c2)cc1 [Compound 14, 4-(3-hydroxybenzylamino)-N-(thiazol-2-yl)benzene sulfonamide]",IC50,[1],> 40 µM
"O=S(=O)(Nc1nccs1)c1ccc(NCc2ccccc2O)cc1 [Compound 9, 4-(2-hydroxybenzylamino)-N-(thiazol-2-yl)benzene sulfonamide]","12-LOX inhibitory activity (SAR, in words)",[1],complete loss of activity
same,IC50,[1],> 40 µM
"COc1cccc(CNc2ccc(S(=O)(=O)Nc3nccs3)cc2)c1O [Compound 1, 4-(2-hydroxy-3-methoxybenzylamino)-N-(thiazol-2-yl)benzenesulfonamide]",IC50,[9],> 40 µM
